Test results: US20100298141A1, “SUBSTITUTED PYRIDINE N-OXIDE HERBICIDES” (E. I. DU PONT DE NEMOURS AND COMPANY, priority 2007, published 2010)

Columns and labels:
corn = assay: Test A pre-/postemergence greenhouse test; assay type: in vivo, Zea mays; conditions: for Plant response rating, Corn: 0 to 100 scale where 0 is no effect and 100 is complete control; for Corn plant response rating: 0 to 100 scale
Method in brief: (§1)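 Planting was into mixed loam soil and sand; preemergence treatment followed as a directed soil spray. Concurrently, emerged plants (one- to two-leaf, 2–10 cm) received postemergence applications of identically formulated compound (non-phytotoxic solvent, surfactant). After approximately ten days under greenhouse conditions, injury was judged by eye against untreated plants.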

barnyardgrass [1] = assay: Test C flooded paddy test; assay type: in vivo, Echinochloa crus-galli; conditions: Flood
Method in brief: (§2)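 Visual injury ratings against untreated controls, taken 13 to 15 days after compound was added to paddy water standing 3 cm above the soil.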

wheat = assay: Test A pre-/postemergence greenhouse test; assay type: in vivo, Triticum aestivum; conditions: for Plant response rating, Wheat: 0 to 100 scale where 0 is no effect and 100 is complete control; for Wheat plant response rating: 0 to 100 scale
Method in brief: as §1

rice = assay: Test C flooded paddy test; assay type: in vivo, Oryza sativa; conditions: Flood
Method in brief: as §2

duck salad = assay: Test C flooded paddy test; assay type: in vivo, Heteranthera limosa; conditions: Flood
Method in brief: as §2

velvetleaf = assay: Test A pre-/postemergence greenhouse test; assay type: in vivo, Abutilon theophrasti; conditions: for Plant response rating, Velvetleaf: 0 to 100 scale where 0 is no effect and 100 is complete control; for Velvetleaf plant response rating: 0 to 100 scale
Method in brief: as §1

redroot pigweed = assay: Test A pre-/postemergence greenhouse test; assay type: in vivo, Amaranthus retroflexus; conditions: for Plant response rating, Pigweed: 0 to 100 scale where 0 is no effect and 100 is complete control; for Pigweed plant response rating: 0 to 100 scale
Method in brief: as §1

barnyardgrass [2] = assay: Test A pre-/postemergence greenhouse test; assay type: in vivo, Echinochloa crus-galli; conditions: for Plant response rating, Barnyardgrass: 0 to 100 scale where 0 is no effect and 100 is complete control; for Barnyardgrass plant response rating: 0 to 100 scale
Method in brief: as §1

giant foxtail = assay: Test A pre-/postemergence greenhouse test; assay type: in vivo, Setaria faberi; conditions: for Plant response rating, Foxtail, Giant: 0 to 100 scale where 0 is no effect and 100 is complete control; for Foxtail, Giant plant response rating: 0 to 100 scale
Method in brief: as §1

crabgrass = assay: Test A pre-/postemergence greenhouse test; assay type: in vivo, Digitaria sanguinalis; conditions: for Plant response rating, Crabgrass, Large: 0 to 100 scale where 0 is no effect and 100 is complete control; for Crabgrass, Large plant response rating: 0 to 100 scale
Method in brief: as §1

umbrella sedge = assay: Test C flooded paddy test; assay type: in vivo, Cyperus difformis; conditions: Flood
Method in brief: as §2

morningglory = assay: Test A pre-/postemergence greenhouse test; assay type: in vivo, Ipomoea spp.; conditions: for Plant response rating, Morningglory: 0 to 100 scale where 0 is no effect and 100 is complete control; for Morningglory plant response rating: 0 to 100 scale
Method in brief: as §1

[3] = Postemergence, 500 g ai/ha, 0 is no effect, 100 is complete control
[4] = Preemergence, 125 g ai/ha, 0 no effect, 100 complete control
[5] = 62 g ai/ha, scale 0 to 100 (0 no effect, 100 complete control)
[6] = 250 g ai/ha, scale 0 to 100, 0 no effect, 100 complete control, 13 to 15 days
[7] = Preemergence, 500 g ai/ha, 0 no effect, 100 complete control
[8] = Postemergence, 125 g ai/ha, 0 is no effect, 100 is complete control
[9] = 31 g ai/ha, scale 0 to 100 (0 no effect, 100 complete control)
[10] = 62 g ai/ha, scale 0 to 100, 0 no effect, 100 complete control, 13 to 15 days
[11] = 125 g ai/ha, scale 0 to 100, 0 no effect, 100 complete control, 13 to 15 days
[12] = 250 g ai/ha, scale 0 to 100 (0 no effect, 100 complete control)

Cc1cc[n+]([O-])c([S+]([O-])Cc2c(C(F)(F)C(F)(F)F)nn(C)c2OCC(F)(F)F)c1 (stereo not drawn) [Compound 91]
Plant response rating, Corn (corn; Postemergence, 125 g ai/ha): 20
Corn plant response rating (corn; [3]): 80
Corn plant response rating (corn; [4]): 10
Plant response rating, Corn (corn; Preemergence, 500 g ai/ha): 90
Plant response rating, Barnyardgrass (barnyardgrass [1]; [5]): 0
Plant response rating, Barnyardgrass (barnyardgrass [1]; [6]): 70
Plant response rating, Wheat (wheat; Postemergence, 125 g ai/ha): 60
Wheat plant response rating (wheat; [3]): 80
Wheat plant response rating (wheat; [4]): 40
Wheat plant response rating (wheat; [7]): 100
Plant response rating, Rice (rice; [5]): 0
Plant response rating, Rice (rice; [6]): 70
Plant response rating, Ducksalad (duck salad; [5]): 45
Plant response rating, Ducksalad (duck salad; [6]): 100
Plant response rating, Velvetleaf (velvetleaf; Postemergence, 125 g ai/ha): 30
Velvetleaf plant response rating (velvetleaf; [3]): 80
Velvetleaf plant response rating (velvetleaf; [4]): 0
Velvetleaf plant response rating (velvetleaf; [7]): 100
Plant response rating, Pigweed (redroot pigweed; Postemergence, 125 g ai/ha): 50
Pigweed plant response rating (redroot pigweed; [3]): 60
Pigweed plant response rating (redroot pigweed; [4]): 90
Plant response rating, Pigweed (redroot pigweed; Preemergence, 500 g ai/ha): 100
Plant response rating, Barnyardgrass (barnyardgrass [2]; Postemergence, 125 g ai/ha): 70
Barnyardgrass plant response rating (barnyardgrass [2]; [3]): 90
Barnyardgrass plant response rating (barnyardgrass [2]; [4]): 20
Plant response rating, Barnyardgrass (barnyardgrass [2]; Preemergence, 500 g ai/ha): 100
Plant response rating, Foxtail, Giant (giant foxtail; Postemergence, 125 g ai/ha): 80
Foxtail, Giant plant response rating (giant foxtail; [3]): 90
Foxtail, Giant plant response rating (giant foxtail; [4]): 90
Plant response rating, Foxtail, Giant (giant foxtail; Preemergence, 500 g ai/ha): 100
Plant response rating, Crabgrass, Large (crabgrass; Postemergence, 125 g ai/ha): 50
Crabgrass, Large plant response rating (crabgrass; [3]): 80
Crabgrass, Large plant response rating (crabgrass; [4]): 20
Plant response rating, Crabgrass, Large (crabgrass; Preemergence, 500 g ai/ha): 100
Plant response rating, Sedge, Umbrella (umbrella sedge; [5]): 75
Plant response rating, Sedge, Umbrella (umbrella sedge; [6]): 100
Plant response rating, Morningglory (morningglory; Postemergence, 125 g ai/ha): 20
Morningglory plant response rating (morningglory; [3]): 100
Morningglory plant response rating (morningglory; [4]): 40
Plant response rating, Morningglory (morningglory; Preemergence, 500 g ai/ha): 100

Cn1nc(C(F)(F)F)c(C(Cl)S(=O)(=O)c2ccc(Cl)c[n+]2[O-])c1Cl (racemic) [Compound 21]
Corn plant response rating (corn; [8]): 0
Corn plant response rating (corn; [3]): 0
Corn plant response rating (corn; [4]): 0
Plant response rating, Corn (corn; Preemergence, 500 g ai/ha): 0
Plant response rating, Barnyardgrass (barnyardgrass [1]; [9]): 0
Plant response rating, Barnyardgrass (barnyardgrass [1]; [10]): 0
Plant response rating, Barnyardgrass (barnyardgrass [1]; [11]): 0
Plant response rating, Barnyardgrass (barnyardgrass [1]; [12]): 20
Wheat plant response rating (wheat; [8]): 0
Wheat plant response rating (wheat; [3]): 0
Wheat plant response rating (wheat; [4]): 0
Plant response rating, Wheat (wheat; Preemergence, 500 g ai/ha): 0
Plant response rating, Rice (rice; [9]): 0
Plant response rating, Rice (rice; [10]): 0
Plant response rating, Rice (rice; [11]): 0
Plant response rating, Rice (rice; [12]): 0
Plant response rating, Ducksalad (duck salad; [9]): 0
Plant response rating, Ducksalad (duck salad; [10]): 0
Plant response rating, Ducksalad (duck salad; [11]): 0
Plant response rating, Ducksalad (duck salad; [12]): 90
Velvetleaf plant response rating (velvetleaf; [8]): 0
Velvetleaf plant response rating (velvetleaf; [3]): 0
Velvetleaf plant response rating (velvetleaf; [4]): 0
Plant response rating, Velvetleaf (velvetleaf; Preemergence, 500 g ai/ha): 0
Pigweed plant response rating (redroot pigweed; [8]): 0
Pigweed plant response rating (redroot pigweed; [3]): 0
Pigweed plant response rating (redroot pigweed; [4]): 40
Barnyardgrass plant response rating (barnyardgrass [2]; [8]): 0
Barnyardgrass plant response rating (barnyardgrass [2]; [3]): 30
Barnyardgrass plant response rating (barnyardgrass [2]; [4]): 60
Plant response rating, Barnyardgrass (barnyardgrass [2]; Preemergence, 500 g ai/ha): 90
Foxtail, Giant plant response rating (giant foxtail; [8]): 0
Foxtail, Giant plant response rating (giant foxtail; [3]): 40
Foxtail, Giant plant response rating (giant foxtail; [4]): 80
Plant response rating, Foxtail, Giant (giant foxtail; Preemergence, 500 g ai/ha): 90
Crabgrass, Large plant response rating (crabgrass; [8]): 20
Crabgrass, Large plant response rating (crabgrass; [3]): 40
Crabgrass, Large plant response rating (crabgrass; [4]): 60
Plant response rating, Crabgrass, Large (crabgrass; Preemergence, 500 g ai/ha): 80
Plant response rating, Sedge, Umbrella (umbrella sedge; [9]): 0
Plant response rating, Sedge, Umbrella (umbrella sedge; [10]): 0
Plant response rating, Sedge, Umbrella (umbrella sedge; [11]): 40
Plant response rating, Sedge, Umbrella (umbrella sedge; [6]): 90
Morningglory plant response rating (morningglory; [8]): 0
Morningglory plant response rating (morningglory; [3]): 0
Plant response rating, Morningglory (morningglory; Preemergence, 500 g ai/ha): 0

[O-][n+]1ccccc1[S+]([O-])Cc1c(C(F)(F)F)nn(CC(F)(F)F)c1Cl (stereo not drawn) [Compound 43]
Plant response rating, Corn (corn; Postemergence, 125 g ai/ha): 30
Corn plant response rating (corn; [3]): 50
Corn plant response rating (corn; [4]): 0
Plant response rating, Corn (corn; Preemergence, 500 g ai/ha): 50
Plant response rating, Barnyardgrass (barnyardgrass [1]; [10]): 0
Plant response rating, Barnyardgrass (barnyardgrass [1]; [6]): 60
Plant response rating, Wheat (wheat; Postemergence, 125 g ai/ha): 40
Wheat plant response rating (wheat; [3]): 60
Wheat plant response rating (wheat; [4]): 40
Plant response rating, Wheat (wheat; Preemergence, 500 g ai/ha): 70
Plant response rating, Rice (rice; [10]): 0
Plant response rating, Rice (rice; [6]): 30
Plant response rating, Ducksalad (duck salad; [10]): 0
Plant response rating, Ducksalad (duck salad; [6]): 60
Plant response rating, Velvetleaf (velvetleaf; Postemergence, 125 g ai/ha): 20
Velvetleaf plant response rating (velvetleaf; [3]): 60
Velvetleaf plant response rating (velvetleaf; [4]): 30
Plant response rating, Velvetleaf (velvetleaf; Preemergence, 500 g ai/ha): 50
Plant response rating, Pigweed (redroot pigweed; Postemergence, 125 g ai/ha): 30
Pigweed plant response rating (redroot pigweed; [3]): 60
Pigweed plant response rating (redroot pigweed; [4]): 0
Plant response rating, Pigweed (redroot pigweed; Preemergence, 500 g ai/ha): 90
Plant response rating, Barnyardgrass (barnyardgrass [2]; Postemergence, 125 g ai/ha): 50
Barnyardgrass plant response rating (barnyardgrass [2]; [3]): 80
Barnyardgrass plant response rating (barnyardgrass [2]; [4]): 70
Plant response rating, Barnyardgrass (barnyardgrass [2]; Preemergence, 500 g ai/ha): 90
Plant response rating, Foxtail, Giant (giant foxtail; Postemergence, 125 g ai/ha): 70
Foxtail, Giant plant response rating (giant foxtail; [3]): 90
Foxtail, Giant plant response rating (giant foxtail; [4]): 80
Plant response rating, Foxtail, Giant (giant foxtail; Preemergence, 500 g ai/ha): 90
Plant response rating, Crabgrass, Large (crabgrass; Postemergence, 125 g ai/ha): 70
Crabgrass, Large plant response rating (crabgrass; [3]): 80
Crabgrass, Large plant response rating (crabgrass; [4]): 70
Plant response rating, Crabgrass, Large (crabgrass; Preemergence, 500 g ai/ha): 90
Plant response rating, Sedge, Umbrella (umbrella sedge; [10]): 30
Plant response rating, Sedge, Umbrella (umbrella sedge; [6]): 70
Plant response rating, Morningglory (morningglory; Postemergence, 125 g ai/ha): 30
Morningglory plant response rating (morningglory; [3]): 80
Morningglory plant response rating (morningglory; [4]): 0
Plant response rating, Morningglory (morningglory; Preemergence, 500 g ai/ha): 80

Cn1nc(C(F)(F)F)c(C[S+]([O-])c2ccc(Cl)c[n+]2[O-])c1OCC(F)(F)C(F)(F)F (stereo not drawn) [Compound 89]
Plant response rating, Corn (corn; Postemergence, 125 g ai/ha): 50
Corn plant response rating (corn; [3]): 80
Corn plant response rating (corn; [4]): 30
Plant response rating, Corn (corn; Preemergence, 500 g ai/ha): 90
Plant response rating, Barnyardgrass (barnyardgrass [1]; [5]): 0
Plant response rating, Barnyardgrass (barnyardgrass [1]; [6]): 90
Plant response rating, Wheat (wheat; Postemergence, 125 g ai/ha): 60
Wheat plant response rating (wheat; [3]): 70
Wheat plant response rating (wheat; [4]): 30
Wheat plant response rating (wheat; [7]): 90
Plant response rating, Rice (rice; [5]): 0
Plant response rating, Rice (rice; [6]): 60
Plant response rating, Ducksalad (duck salad; [5]): 40
Plant response rating, Ducksalad (duck salad; [6]): 100
Plant response rating, Velvetleaf (velvetleaf; Postemergence, 125 g ai/ha): 30
Velvetleaf plant response rating (velvetleaf; [3]): 80
Velvetleaf plant response rating (velvetleaf; [4]): 10
Velvetleaf plant response rating (velvetleaf; [7]): 100
Plant response rating, Pigweed (redroot pigweed; Postemergence, 125 g ai/ha): 50
Pigweed plant response rating (redroot pigweed; [3]): 100
Pigweed plant response rating (redroot pigweed; [4]): 80
Plant response rating, Pigweed (redroot pigweed; Preemergence, 500 g ai/ha): 100
Plant response rating, Barnyardgrass (barnyardgrass [2]; Postemergence, 125 g ai/ha): 70
Barnyardgrass plant response rating (barnyardgrass [2]; [3]): 90
Barnyardgrass plant response rating (barnyardgrass [2]; [4]): 40
Plant response rating, Barnyardgrass (barnyardgrass [2]; Preemergence, 500 g ai/ha): 100
Plant response rating, Foxtail, Giant (giant foxtail; Postemergence, 125 g ai/ha): 80
Foxtail, Giant plant response rating (giant foxtail; [3]): 90
Foxtail, Giant plant response rating (giant foxtail; [4]): 80
Plant response rating, Foxtail, Giant (giant foxtail; Preemergence, 500 g ai/ha): 100
Plant response rating, Crabgrass, Large (crabgrass; Postemergence, 125 g ai/ha): 50
Crabgrass, Large plant response rating (crabgrass; [3]): 90
Crabgrass, Large plant response rating (crabgrass; [4]): 90
Plant response rating, Crabgrass, Large (crabgrass; Preemergence, 500 g ai/ha): 90
Plant response rating, Sedge, Umbrella (umbrella sedge; [5]): 0
Plant response rating, Sedge, Umbrella (umbrella sedge; [6]): 100
Plant response rating, Morningglory (morningglory; Postemergence, 125 g ai/ha): 40
Morningglory plant response rating (morningglory; [3]): 90
Plant response rating, Morningglory (morningglory; Preemergence, 500 g ai/ha): 90
